Where a name gives a salt, the structure may show the parent alone.
How the values were obtained:
FGFR2 kinase = molecular target: T1, FGFR2 kinase (Homo sapiens, UniProt P21802, N549H); test: fluorescent ELISA FGFR2 kinase assay (biochemical); conditions: FGFR2 (N549H); read-out: Biochemical data (IC50-μM) FGFR2 (N549H)
T1 construct: purchased Millipore 14-742
Procedure: The enzymatic assays described herein are conducted according to the following procedures from commercially available reagents. In one, non limiting, example, a fluorescent ELISA assay is used to identify and characterize inhibitors of FGFR2 kinase as described herein. This heterogeneous assay utilizes a biotinylated peptide with a tyrosine motif as a substrate and an anti-phospho-tyrosine antibody to measure phosphorylation of the substrate. […] The reaction is incubated for 60 minutes. As the reaction proceeds, FGFR2 phosphorylates tyrosines in the peptide. […] Peptides are captured for 30 minutes at room temperature, the phosphorylation of peptides continues during this phase. The reaction is stopped by washing the streptavidin-coated plate 6 times with TBST. […] Unbound anti-phospho-tyrosine antibody is removed by washing the streptavidin-coated plate 6 times with TBST. […] Unbound secondary antibody is removed by washing the streptavidin-coated plate 6 times with TBST.

AN3-CA = test: MTS cell kill assay, AN3-CA; assay type: cell-based; conditions: Homo sapiens
Procedure: (§1) Cells were maintained at 37° C., 5% CO2 in DMEM media supplemented with 1% fetal bovine serum, penicillin/streptomycin and fungizone (Invitrogen). Cells were seeded into 96-well tissue culture plates at 3000 per well and cultured at 37° C. for 18 hours. Test compounds were dissolved and diluted to 300× in DMSO then diluted 1:40 in DMEM.

SNU-16 = test: MTS assay, SNU-16; assay type: cell-based; conditions: Homo sapiens, SNU-16, SNU-16; read-out: MTS cell kill data (IC50-μM) SNU-16
Procedure: as §1

RT4 = test: MTS cell kill assay, RT4; assay type: cell-based; conditions: Homo sapiens, RT-4, RT4
Procedure: as §1

PACA-2 = test: MTS cell kill, PACA-2; assay type: cell-based
Procedure: as §1

PC-3 = test: MTS cell kill, PC-3; assay type: cell-based
Procedure: as §1

DLD-1 = test: MTS cell kill, DLD-1; assay type: cell-based
Procedure: as §1

KATO III = test: MTS assay, KATO III; assay type: cell-based
Procedure: as §1

NCI-H1299 = test: MTS cell kill, NCI-H1299; assay type: cell-based
Procedure: as §1

MDA-MB-231 = test: MTS cell kill, MDA-MB-231; assay type: cell-based
Procedure: as §1

T1 sequence (P21802 456-770 N549H limits assumed): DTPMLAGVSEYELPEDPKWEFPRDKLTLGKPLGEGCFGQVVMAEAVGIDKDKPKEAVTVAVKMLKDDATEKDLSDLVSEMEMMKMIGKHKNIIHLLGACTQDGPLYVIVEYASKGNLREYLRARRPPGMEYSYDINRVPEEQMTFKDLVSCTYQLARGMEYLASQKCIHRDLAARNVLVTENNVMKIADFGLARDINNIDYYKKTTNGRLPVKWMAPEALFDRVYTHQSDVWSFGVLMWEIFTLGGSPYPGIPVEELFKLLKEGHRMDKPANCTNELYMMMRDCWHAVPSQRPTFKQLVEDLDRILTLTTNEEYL

COCCN1CCN(CCc2ccc(Nc3ncc4c(n3)-c3ccccc3[C@H](c3ccccc3F)C4)cc2)CC1 [Example 66, (R)-6-(2-fluorophenyl)-N-(4-(2-(4-(2-methoxyethyl)piperazin-1-yl)ethyl)phenyl)-5,6-dihydrobenzo[h]quinazolin-2-amine hydrochloride]
1.55 µM: IC50 (RT4)
1.28 µM: IC50 (SNU-16)
0.014 µM: IC50 (FGFR2 kinase)
0.361 µM: IC50 (AN3-CA)

COCC(=O)Nc1ccc(C2Cc3cnc(NCCCCN(C)C)nc3-c3ccccc32)cc1 (stereo not shown) [Example 471, N-[4-(2-{[4-(dimethylamino)butyl]amino}-5,6-dihydrobenzo[h]quinazolin-6-yl)phenyl]-2-methoxyacetamide]
C (C = <50% inhibition): MTS cell kill data (% inhibition) PC-3 (PC-3)
A (A = 80-100% inhibition): MTS cell kill data (% inhibition) PACA-2 (PACA-2) | MTS cell kill data (% inhibition) DLD-1 (DLD-1) | MTS cell kill data (% inhibition) KATO III (KATO III) | MTS cell kill data (% inhibition) NCI-H1299 (NCI-H1299) | MTS cell kill data (% inhibition) MDA-MB-231 (MDA-MB-231)

Cc1ccc(S(=O)(=O)Nc2ccc(C3Cc4cnc(NCCCCN(C)C)nc4-c4ccccc43)cc2)cc1 (stereo not shown) [Example 420, N-[4-(2-{[4-(dimethylamino)butyl]amino}-5,6-dihydrobenzo[h]quinazolin-6-yl)phenyl]-4-methylbenzenesulfonamide]
A (A = 80-100% inhibition): MTS cell kill data (% inhibition) PACA-2 (PACA-2) | MTS cell kill data (% inhibition) PC-3 (PC-3) | MTS cell kill data (% inhibition) DLD-1 (DLD-1) | MTS cell kill data (% inhibition) KATO III (KATO III) | MTS cell kill data (% inhibition) NCI-H1299 (NCI-H1299) | MTS cell kill data (% inhibition) MDA-MB-231 (MDA-MB-231)

Cc1cccc(Cl)c1S(=O)(=O)Nc1ccc(C2Cc3cnc(NCCCCN(C)C)nc3-c3ccccc32)cc1 (stereo not shown) [Example 431, 2-chloro-N-[4-(2-{[4-(dimethylamino)butyl]amino}-5,6-dihydrobenzo[h]quinazolin-6-yl)phenyl]-6-methylbenzenesulfonamide]
A (A = 80-100% inhibition): MTS cell kill data (% inhibition) PACA-2 (PACA-2) | MTS cell kill data (% inhibition) DLD-1 (DLD-1) | MTS cell kill data (% inhibition) KATO III (KATO III) | MTS cell kill data (% inhibition) NCI-H1299 (NCI-H1299) | MTS cell kill data (% inhibition) MDA-MB-231 (MDA-MB-231)
B (B = 50-79% inhibition): MTS cell kill data (% inhibition) PC-3 (PC-3)

CN(C)CCCCNc1ncc2c(n1)-c1ccccc1C(c1ccc(NS(=O)(=O)c3ccc(C(C)(C)C)cc3)cc1)C2 (stereo not shown) [Example 435, 4-tert-butyl-N-[4-(2-{[4-(dimethylamino)butyl]amino}-5,6-dihydrobenzo[h]quinazolin-6-yl)phenyl]benzenesulfonamide]
A (A = 80-100% inhibition): MTS cell kill data (% inhibition) PACA-2 (PACA-2) | MTS cell kill data (% inhibition) PC-3 (PC-3) | MTS cell kill data (% inhibition) DLD-1 (DLD-1) | MTS cell kill data (% inhibition) KATO III (KATO III) | MTS cell kill data (% inhibition) NCI-H1299 (NCI-H1299) | MTS cell kill data (% inhibition) MDA-MB-231 (MDA-MB-231)

Cc1ccc(S(=O)(=O)Nc2ccc(C3Cc4cnc(NCCCCN(C)C)nc4-c4ccccc43)cc2)c(C)c1 (stereo not shown) [Example 423, N-[4-(2-{[4-(dimethylamino)butyl]amino}-5,6-dihydrobenzo[h]quinazolin-6-yl)phenyl]-2,4-dimethylbenzenesulfonamide]
A (A = 80-100% inhibition): MTS cell kill data (% inhibition) PACA-2 (PACA-2) | MTS cell kill data (% inhibition) PC-3 (PC-3) | MTS cell kill data (% inhibition) DLD-1 (DLD-1) | MTS cell kill data (% inhibition) KATO III (KATO III) | MTS cell kill data (% inhibition) NCI-H1299 (NCI-H1299) | MTS cell kill data (% inhibition) MDA-MB-231 (MDA-MB-231)

CN(C)CCCCNc1ncc2c(n1)-c1ccccc1C(c1ccc(NS(=O)(=O)c3cccc4cccnc34)cc1)C2 (stereo not shown) [Example 434, N-[4-(2-{[4-(dimethylamino)butyl]amino}-5,6-dihydrobenzo[h]quinazolin-6-yl)phenyl]quinoline-8-sulfonamide]
A (A = 80-100% inhibition): MTS cell kill data (% inhibition) PACA-2 (PACA-2) | MTS cell kill data (% inhibition) PC-3 (PC-3) | MTS cell kill data (% inhibition) DLD-1 (DLD-1) | MTS cell kill data (% inhibition) KATO III (KATO III) | MTS cell kill data (% inhibition) NCI-H1299 (NCI-H1299) | MTS cell kill data (% inhibition) MDA-MB-231 (MDA-MB-231)

CN(C)CCCCNc1ncc2c(n1)-c1ccccc1C(c1ccc(NS(=O)(=O)c3ccc(-c4ccccc4)cc3)cc1)C2 (stereo not shown) [Example 421, N-[4-(2-{[4-(dimethylamino)butyl]amino}-5,6-dihydrobenzo[h]quinazolin-6-yl)phenyl]biphenyl-4-sulfonamide]
A (A = 80-100% inhibition): MTS cell kill data (% inhibition) PACA-2 (PACA-2) | MTS cell kill data (% inhibition) PC-3 (PC-3) | MTS cell kill data (% inhibition) DLD-1 (DLD-1) | MTS cell kill data (% inhibition) KATO III (KATO III) | MTS cell kill data (% inhibition) NCI-H1299 (NCI-H1299) | MTS cell kill data (% inhibition) MDA-MB-231 (MDA-MB-231)

CCCc1ccc(C(=O)Nc2ccc(C3Cc4cnc(NCCCCN(C)C)nc4-c4ccccc43)cc2)cc1 (stereo not shown) [Example 470, N-[4-(2-{[4-(dimethylamino)butyl]amino}-5,6-dihydrobenzo[h]quinazolin-6-yl)phenyl]-4-propylbenzamide]
A (A = 80-100% inhibition): MTS cell kill data (% inhibition) PACA-2 (PACA-2) | MTS cell kill data (% inhibition) PC-3 (PC-3) | MTS cell kill data (% inhibition) DLD-1 (DLD-1) | MTS cell kill data (% inhibition) KATO III (KATO III) | MTS cell kill data (% inhibition) NCI-H1299 (NCI-H1299) | MTS cell kill data (% inhibition) MDA-MB-231 (MDA-MB-231)

Cc1cccc(C(=O)Nc2ccc(C3Cc4cnc(NCCCCN(C)C)nc4-c4ccccc43)cc2)c1 (stereo not shown) [Example 469, N-[4-(2-{[4-(dimethylamino)butyl]amino}-5,6-dihydrobenzo[h]quinazolin-6-yl)phenyl]-3-methylbenzamide]
A (A = 80-100% inhibition): MTS cell kill data (% inhibition) PACA-2 (PACA-2) | MTS cell kill data (% inhibition) PC-3 (PC-3) | MTS cell kill data (% inhibition) DLD-1 (DLD-1) | MTS cell kill data (% inhibition) KATO III (KATO III) | MTS cell kill data (% inhibition) NCI-H1299 (NCI-H1299) | MTS cell kill data (% inhibition) MDA-MB-231 (MDA-MB-231)

CN(C)CCCCNc1ncc2c(n1)-c1ccccc1C(c1ccc(NS(=O)(=O)c3cccc(C(F)(F)F)c3)cc1)C2 (stereo not shown) [Example 430, N-[4-(2-{[4-(dimethylamino)butyl]amino}-5,6-dihydrobenzo[h]quinazolin-6-yl)phenyl]-3-(trifluoromethyl)benzenesulfonamide]
A (A = 80-100% inhibition): MTS cell kill data (% inhibition) PACA-2 (PACA-2) | MTS cell kill data (% inhibition) PC-3 (PC-3) | MTS cell kill data (% inhibition) DLD-1 (DLD-1) | MTS cell kill data (% inhibition) KATO III (KATO III) | MTS cell kill data (% inhibition) NCI-H1299 (NCI-H1299) | MTS cell kill data (% inhibition) MDA-MB-231 (MDA-MB-231)

CN(C)CCCCNc1ncc2c(n1)-c1ccccc1C(c1ccc(NS(=O)(=O)c3ccc(Br)s3)cc1)C2 (stereo not shown) [Example 427, 5-bromo-N-[4-(2-{[4-(dimethylamino)butyl]amino}-5,6-dihydrobenzo[h]quinazolin-6-yl)phenyl]thiophene-2-sulfonamide]
A (A = 80-100% inhibition): MTS cell kill data (% inhibition) PACA-2 (PACA-2) | MTS cell kill data (% inhibition) DLD-1 (DLD-1) | MTS cell kill data (% inhibition) KATO III (KATO III) | MTS cell kill data (% inhibition) NCI-H1299 (NCI-H1299) | MTS cell kill data (% inhibition) MDA-MB-231 (MDA-MB-231)
B (B = 50-79% inhibition): MTS cell kill data (% inhibition) PC-3 (PC-3)
